Measurements from article PMC12010937, “Evaluation of FXR Activity in Pollutants Identified in Sewage Sludge and Subsequent in Vitro and in Vivo Characterization of Metabolic Effects of Triphenyl Phosphate” (Environmental Health Perspectives, 2025).
Read-outs that look alike come from different tables or passages of the source.

System: C57BL/6N mice
Conditions: TPHP-L group, liver
[1] = adduct [M+Na]+, first of two TG 52:3 lines
[2] = adduct [M+Na]+, second of two TG 52:3 lines

## O=P(Oc1ccccc1)(Oc1ccccc1)Oc1ccccc1 [TPHP, triphenyl phosphate]
Adduct [M+H]+
  Z-score of CAR 6:0: 0.06
  Z-score of CAR 10:0: 0.42
  Z-score of CAR 12:0: 0.80
  Z-score of CAR 16:2: -0.06
  Z-score of CAR 18:2: -0.03
  Z-score of CAR 18:4: 0.78
  Z-score of CAR 20:4: 0.82
  Z-score of NAE 14:0: -0.48
  Z-score of NAE 20:5: 1.00
  Z-score of PC 40:6: -0.17
  Z-score of PS 36:4: 0.68
  Z-score of SM 27:5;O2: 0.55
  Z-score of SM 28:3;O3: 0.44
  Z-score of SM 31:3;O3: -0.11
  Z-score of SM 41:2;O2: 0.71
  average intensity of CAR 6:0: 2396721
  average intensity of CAR 10:0: 1504841
  average intensity of CAR 12:0: 2823213
  average intensity of CAR 16:2: 1645671
  average intensity of CAR 18:2: 11661319
  average intensity of CAR 18:4: 10920113
  average intensity of CAR 20:4: 36994205
  average intensity of NAE 14:0: 681808
  average intensity of NAE 20:5: 53457329
  average intensity of PC 40:6: 25730542
  average intensity of PS 36:4: 1577436
  average intensity of SM 27:5;O2: 18375860
  average intensity of SM 28:3;O3: 1750893
  average intensity of SM 31:3;O3: 1688236
  average intensity of SM 41:2;O2: 9894007
Adduct [M+NH4]+
  Z-score of BMP 25:4: -0.15
  Z-score of BMP 30:5: -0.42
  Z-score of BMP 38:4: -0.33
  Z-score of PG 21:2: -0.09
  Z-score of PI 39:10: -0.15
  Z-score of TG 48:11: -0.30
  Z-score of TG 55:4: -0.04
  average intensity of BMP 25:4: 28243710
  average intensity of BMP 30:5: 997136
  average intensity of BMP 38:4: 9007436
  average intensity of PG 21:2: 4648685
  average intensity of PI 39:10: 2117103
  average intensity of TG 48:11: 18422444
  average intensity of TG 55:4: 5767515
Adduct [M+Na]+
  Z-score of Cer 42:1;O2: -0.14
  Z-score of Cer 64:6;O2: 0.49
  Z-score of DG 19:1: -0.58
  Z-score of DG 26:5: -0.57
  Z-score of DG 26:6: -0.39
  Z-score of PC 29:5: -0.26
  Z-score of PC 38:6: -0.37
  Z-score of PC 42:9: -0.33
  Z-score of PS 40:7: 0.24
  Z-score of TG 52:2: 0.37
  Z-score of TG 52:4: 0.20
  average intensity of Cer 42:1;O2: 2208919
  average intensity of Cer 64:6;O2: 16081083
  average intensity of DG 19:1: 5508
  average intensity of DG 26:5: 1202226
  average intensity of DG 26:6: 565410
  average intensity of PC 29:5: 8118187
  average intensity of PC 38:6: 13132954
  average intensity of PC 42:9: 1167997
  average intensity of PS 40:7: 3607887
  average intensity of TG 52:2: 9167552
  average intensity of TG 52:4: 2497450
[1]
  Z-score of TG 52:3: 0.19
  average intensity of TG 52:3: 1036928
[2]
  Z-score of TG 52:3: 0.18
  average intensity of TG 52:3: 8512501
Adduct [M-H]-
  Z-score of Cer 40:1;O2: -0.23
  Z-score of Cer 41:1;3O(2OH): -0.38
  Z-score of Cer 42:1;3O(2OH): -0.39
  Z-score of Cer 43:1;3O(2OH): -0.38
  Z-score of FA 10:1: -0.53
  Z-score of FA 14:2: 0.22
  Z-score of FA 16:2;O: 0.94
  Z-score of FA 19:2;O2: 0.68
  Z-score of PG 34:2: -0.56
  Z-score of PG 44:12: -0.57
  Z-score of PI 36:3: -0.53
  Z-score of PI 38:4: 0.83
  average intensity of Cer 40:1;O2: 383914
  average intensity of Cer 41:1;3O(2OH): 1471085
  average intensity of Cer 42:1;3O(2OH): 280519
  average intensity of Cer 43:1;3O(2OH): 206714
  average intensity of FA 10:1: 231265
  average intensity of FA 14:2: 1600712
  average intensity of FA 16:2;O: 1172357
  average intensity of FA 19:2;O2: 7389373
  average intensity of PG 34:2: 228532
  average intensity of PG 44:12: 36906
  average intensity of PI 36:3: 498699
  average intensity of PI 38:4: 49874871
